This note sets out measurements from patent US20220347085A1, “REPELLENT COMPOSITION AND USES” (Université Bourgogne, priority 2019, published 2022).

The experiment concerns Drosophila suzukii. Description: Anesthesia test, Drosophila suzukii. It is filed as in vivo. The settings on record: female flies. As to the method: The devices used were similar to the devices for studying the courtship (example 1 above), except for the volume of the space into which the files were introduced, which was 45.24 or 22.62 cm^3. 9 discs of filter paper (Whatman, filter paper 42), each soaked in 10 μl of a composition comprising butyric acid and/or propionic acid and/or a derivative of propionic acid diluted in paraffin oil were deposited in the device. The different compositions used comprised, respectively, 2% propionic acid or 2% butyric acid or 5% ethyl propanoate or 10% ethyl propanoate or 30% ethyl propanoate. For each composition, the number of flies was, respectively, 30 and 24 males, 30 and 11 females for Drosophila melanogaster, and 24, 16 and 4 males, 28, 26, 6, 5 and 4 females for Drosophila suzukii. In order to avoid any contact of the flies with the soaked disks of paper, a gauze (netting) was arranged above said papers. The drosophilae could move freely on said gauze. The quantity of compound, butyric acid or propionic acid, or of ethyl propanoate (odor) volatilized in the behavior chamber was equivalent to that of the device used for the courtship. Likewise, the flies were never in direct contact with the composition (no taste perception), only with the volatile particles (olfactory perception). The flies tested were introduced simultaneously, by group, into the enclosure. Their behavior was filed for 10 minutes, and a time required for leading to anesthesia was calculated over this period, depending on the concentration of butyric acid or propionic acid or ethyl propanoate used. The flies were considered anesthetized when they stopped moving and fell on their side.

Take `CCOC(=O)CC` [ethyl propanoate]: the “time elapsed leading to anesthesia” value by setting is: (5% in paraffin oil) “approximately 6 minutes”; (10% in paraffin oil) “approximately 4 minutes”; (30% in paraffin oil) 2 to 3 min.
